In patent US4292319A, “Antiphlogistic pharmaceutical compositions and method of use” (Boehringer Ingelheim GmbH, priority 1977, dated 1981):
“And” between values parts separate entries of the source, which are not always exact repeats. Equal entries are not always repeated. Where two headings read alike, the source gives them in different places.

Columns and labels:
[1] = test system: kaolin-induced edema of the rat's hind paw; assay: Test for antiphlogistic effect against the kaolin-induced edema of the rat's hind paw; type: in vivo, rat (Chbb:THOM); conditions: for Thickness of the paw (mean) / ED35: oral, rat; for Thickness of the paw (mean): 5 h after kaolin; for influence on acute anti-exudative (antiphlogistic) effect of non-steroidal antiphlogistics: kaolin-induced edema, simultaneous oral administration; for ED35: Rattus norvegicus, po, 5 h, kaolin edema, read-out: ED35
Procedure: (2) Test for antiphlogistic effect against the kaolin-induced edema of the rat's hind paw (tested substances: A, B, C and D)
The test was carried out on male Chbb:THOM-rats with a body weight between 125 and 150 gm. According to HILLEBRECHT [Arzneimittel-Forsch. 4, 607 (1954)], a subplantary injection of 0.05 ml of a 10% suspension of kaolin in an aqueous 0.85% sodium chloride solution in the hind paw was used for the provocation of the kaolin edema. The other hind paw was subplantarily injected with the same volume of an aqueous 0.85% sodium chloride solution.
The measurement of the thickness of the paws was carried out using the technique of DOEPFNER and […] [Int. Arch. Allergy appl. Immunol. 12, 89 (1958)] by way of the determination of the maximum sagittal diameter, using a measuring device with constant pressure, before and 5 hours after the provocation of the edema.
The test substances (the non-steroidal antiphlogistics or the mixture of non-steroidal antiphlogistics with pirenzepine dihydrochloride) were administered 30 minutes before provocation of the edema as a trituration in 1% tylose (1 ml/[…]) by way of an esophageal tube.
The diameter of the paw measured before the beginning of the test as well as the increase in diameter of the other paw caused by injection were subtracted from the diameter of the kaolin-treated paw, and this difference, being the real swelling value, was used for the further calculations.
(§1) From the swelling values obtained by administration of different dosages of non-steroidal antiphlogistics with or without the addition of pirenzepine dihydrochloride, using a linear regression analysis according to LINDNER [Statistische Methoden, 4th Ed., pages 148-162, Birkhauser, Basel, Switzerland (1964)], the ED35 values of the antiphlogistics were calculated with the confidence limits according to FIELLER [Quart. J. Pharm. Pharmacol. 17, 117 (1944)], the ED35 being the dosage which reduces the swelling of the paws by 35% in comparison to the control animals.

[2] = test system: carrageenin-induced edema of the hind paw of the rat; assay: Test for antiphlogistic effect against the carrageenin-induced edema of the hind paw of the rat; type: in vivo; conditions: for Thickness of the paw (mean): oral, 3 h after carrageenin; for Thickness of the paw (mean) / ED35: rat; for influence on acute anti-exudative (antiphlogistic) effect of non-steroidal antiphlogistics: carrageenin-induced edema, simultaneous oral administration; for ED35: Rattus norvegicus, po, 3 h, carrageenin edema
Procedure: The test was carried out in analogy to the above test for the kaolin-induced edema. However, the edema was induced according to the method of WINTER et al. [J. Pharmacol. 141, 369 (1963)] by subplantary injection of 0.05 ml of a 1% solution of carrageenin in an aqueous 0.85% solution of sodium chloride. […] Three hours after the provocation of the edema the measurement which provided the basis for the evaluation of an anti-exudative effect was carried out.
as §1

[3] = test system: ulcer; type: in vivo; conditions: pirenzepine dihydrochloride together with indomethacin; several hundred cases, two years
[4] = test system: stomach of the rat; assay: Test for ulcerogenic effect on the stomach of the rat; type: in vivo, rat (Chbb:THOM); conditions: oral, 3 subsequent days
Procedure: (§2) (1) Test for ulcerogenic effect on the stomach of the rat
(§3) The test was carried out on male and female (1:1) Chbb:THOM-rats with a body weight between 130 to 150 gm at the beginning of the study.
(§4) The test substances (non-steroidal anti-phlogistics or mixtures of these antiphlogistics with pirenzepine dihydrochloride) were administered as triturations in 1% tylose (1 ml/100 gm animal) by way of an esophageal tube once a day on three successive days.
(§5) Four hours after the last administration (i.e. on the 3rd day) the animals were killed by an over-dose of ether. The stomachs wer dissected, cut along the great curvature and washed under flowing water for subsequent macroscopic evaluation.

[5] = as above; type: in vivo, rat (Chbb:THOM); conditions: in vivo, po, ED50-ulcer
Procedure: as §2, §3, §4, §5

[6] = test system: gastro-intestinal tract; conditions: cited from earlier work
[7] = listed as pirenzepine dihydrochloride, dihydrochloride
[8] = antiphlogistic 25 mgm/kg + A 100 mgm/kg
[9] = antiphlogistic 25 mgm/kg, without A
[10] = antiphlogistic 50 mgm/kg + A 100 mgm/kg
[11] = antiphlogistic 50 mgm/kg, without A
[12] = antiphlogistic 25 mgm/kg + A 400 mgm/kg
[13] = antiphlogistic 50 mgm/kg + A 400 mgm/kg
[14] = antiphlogistic 100 mgm/kg + A 400 mgm/kg
[15] = antiphlogistic 100 mgm/kg, without A
[16] = antiphlogistic 200 mgm/kg, without A
[17] = antiphlogistic 200 mgm/kg + A 400 mgm/kg

## CN1CCN(CC(=O)N2c3ccccc3C(=O)Nc3cccnc32)CC1.Cl.Cl [A, 5,11-dihydro-11-[(4-methyl-1-piperazinyl)-acetyl]-6H-pyrido[2,3-b] [1,4] benzodiazepin-6-one dihydrochloride]
[1]; Controls with A 100 mgm/kg, no antiphlogistic, dihydrochloride
  Thickness of the paw (mean): 277.5 10^-2 mm and 276.3 10^-2 mm and 278.0 10^-2 mm
[1]; dihydrochloride
  influence on acute anti-exudative (antiphlogistic) effect of non-steroidal antiphlogistics: not reduced
[1]; [7]
  influence on acute anti-exudative (antiphlogistic) effect of non-steroidal antiphlogistics: does not lead to a reduction of the acute anti-exudative effect
[2]; Controls with A 400 mgm/kg, no antiphlogistic, dihydrochloride
  Thickness of the paw (mean): 272.0 10^-2 mm and 271.0 10^-2 mm
[2]; dihydrochloride
  influence on acute anti-exudative (antiphlogistic) effect of non-steroidal antiphlogistics: not reduced
[2]; [7]
  influence on acute anti-exudative (antiphlogistic) effect of non-steroidal antiphlogistics: does not lead to a reduction of the acute anti-exudative effect
[3]
  ulcer rate: ~0%

## OCCCCc1ccc(-c2ccccc2)cc1 [D, 4-(4-biphenylyl)-butanol]
[1]; with A 100 mgm/kg
  ED35: 12.1 mg/kg
[1]; without A
  ED35: 11.2 mg/kg
[1]; antiphlogistic 6.25 mgm/kg + A 100 mgm/kg
  Thickness of the paw (mean): 215.5 10^-2 mm
[1]; antiphlogistic 6.25 mgm/kg, without A
  Thickness of the paw (mean): 214.3 10^-2 mm
[1]; antiphlogistic 12 mgm/kg + A 100 mgm/kg
  Thickness of the paw (mean): 180.4 10^-2 mm
[1]; antiphlogistic 12 mgm/kg, without A
  Thickness of the paw (mean): 165.0 10^-2 mm
[1]; [8]
  Thickness of the paw (mean): 141.0 10^-2 mm
[1]; [9]
  Thickness of the paw (mean): 124.0 10^-2 mm
[4]; antiphlogistic 28.1 mgm/kg, without A
  Ratio of animals with ulcers: 4/17
[4]; antiphlogistic 37.5 mgm/kg, without A
  Ratio of animals with ulcers: 5/17
[4]; antiphlogistic 50.0 mgm/kg + A 50 mgm/kg
  Ratio of animals with ulcers: 1/16
[4]; [10]
  Ratio of animals with ulcers: 2/16
[4]; [11]
  Ratio of animals with ulcers: 9/17
[4]; antiphlogistic 67.5 mgm/kg + A 50 mgm/kg
  Ratio of animals with ulcers: 6/16
[4]; antiphlogistic 67.5 mgm/kg + A 100 mgm/kg
  Ratio of animals with ulcers: 5/15
[4]; antiphlogistic 67.5 mgm/kg, without A
  Ratio of animals with ulcers: 15/17
[4]; antiphlogistic 91.1 mgm/kg + A 50 mgm/kg
  Ratio of animals with ulcers: 11/14
[4]; antiphlogistic 91.1 mgm/kg + A 100 mgm/kg
  Ratio of animals with ulcers: 7/15
[4]; antiphlogistic 123.0 mgm/kg + A 50 mgm/kg
  Ratio of animals with ulcers: 13/14
[4]; antiphlogistic 123.0 mgm/kg + A 100 mgm/kg
  Ratio of animals with ulcers: 10/13
[5]
  TD50: 44.5 mg/kg

## CCCCC1C(=O)N(c2ccccc2)N(c2ccccc2)C1=O [G, 4-butyl-1,2-diphenyl-3,5-pyrazolidinedione]
[6]; human, in vivo
  gastro-intestinal incompatabilities encountered, share of all cases: 25-37%
[2]; with A 400 mgm/kg
  ED35: 45.7 mg/kg
[2]; without A
  ED35: 51.7 mg/kg
[2]; [12]
  Thickness of the paw (mean): 205.0 10^-2 mm
[2]; [9]
  Thickness of the paw (mean): 216.8 10^-2 mm
[2]; [13]
  Thickness of the paw (mean): 173.5 10^-2 mm
[2]; [11]
  Thickness of the paw (mean): 175.8 10^-2 mm
[2]; [14]
  Thickness of the paw (mean): 138.9 10^-2 mm
[2]; [15]
  Thickness of the paw (mean): 153.8 10^-2 mm
[2]; [16]
  Thickness of the paw (mean): 125.0 10^-2 mm
[4]; antiphlogistic 50 mgm/kg + A 200 mgm/kg
  Ratio of animals with ulcers: 2/20
[4]; [13]
  Ratio of animals with ulcers: 0/20
[4]; [11]
  Ratio of animals with ulcers: 4/20
[4]; antiphlogistic 71 mgm/kg + A 200 mgm/kg
  Ratio of animals with ulcers: 8/20
[4]; antiphlogistic 71 mgm/kg + A 400 mgm/kg
  Ratio of animals with ulcers: 0/20
[4]; antiphlogistic 100 mgm/kg + A 200 mgm/kg
  Ratio of animals with ulcers: 15/20
[4]; [14]
  Ratio of animals with ulcers: 6/20
[4]; [15]
  Ratio of animals with ulcers: 14/20
[4]; antiphlogistic 200 mgm/kg + A 200 mgm/kg
  Ratio of animals with ulcers: 20/20
[4]; [17]
  Ratio of animals with ulcers: 14/20
[4]; [16]
  Ratio of animals with ulcers: 20/20
[4]; antiphlogistic 400 mgm/kg + A 400 mgm/kg
  Ratio of animals with ulcers: 18/19
[5]
  TD50: 69 mg/kg

## CC(C)Cc1ccc(C(C)C(=O)O)cc1 (centres unmarked) [H, 2-(4-isobutylphenyl)-propionic acid]
[2]; with A 400 mgm/kg
  ED35: 34.2 mg/kg
[2]; without A
  ED35: 39.6 mg/kg
[2]; antiphlogistic 20 mgm/kg + A 400 mgm/kg
  Thickness of the paw (mean): 204.0 10^-2 mm
[2]; antiphlogistic 20 mgm/kg, without A
  Thickness of the paw (mean): 210.0 10^-2 mm
[2]; antiphlogistic 40 mgm/kg + A 400 mgm/kg
  Thickness of the paw (mean): 170.0 10^-2 mm
[2]; antiphlogistic 40 mgm/kg, without A
  Thickness of the paw (mean): 167.0 10^-2 mm
[2]; antiphlogistic 80 mgm/kg + A 400 mgm/kg
  Thickness of the paw (mean): 131.7 10^-2 mm
[2]; antiphlogistic 80 mgm/kg, without A
  Thickness of the paw (mean): 141.5 10^-2 mm
[4]; antiphlogistic 12.5 mgm/kg, without A
  Ratio of animals with ulcers: 0/20
[4]; [8]
  Ratio of animals with ulcers: 6/20
[4]; [12]
  Ratio of animals with ulcers: 1/20
[4]; [9]
  Ratio of animals with ulcers: 8/20
[4]; [10]
  Ratio of animals with ulcers: 11/20
[4]; [13]
  Ratio of animals with ulcers: 11/20
[4]; [11]
  Ratio of animals with ulcers: 15/20
[4]; antiphlogistic 100 mgm/kg + A 100 mgm/kg
  Ratio of animals with ulcers: 18/20
[4]; [14]
  Ratio of animals with ulcers: 16/20
[4]; [15]
  Ratio of animals with ulcers: 19/20
[4]; antiphlogistic 200 mgm/kg + A 100 mgm/kg
  Ratio of animals with ulcers: 20/20
[4]; [17]
  Ratio of animals with ulcers: 19/20
[4]; [16]
  Ratio of animals with ulcers: 20/20
[5]
  TD50: 31 mg/kg

## CCCC1C(=O)N2C(N(C)C)=Nc3ccc(C)cc3N2C1=O (centres unmarked) [azapropazone, 5-dimethylamino-9-methyl-2-propyl-1H-pyrazolo[1,2-a][1,2,4]benzotriazine-1,3(2H)-dione]
[6]; clinical, depending upon experience, patients and compound primarily used
  gastro-intestinal incompatabilities encountered, share of all cases: 25-37%
